The source of these data is patent US11780893B2, “Kv1.3 blockers” (Zealand Pharma A/S, priority 2019, dated 2023).

Like-named read-outs stand apart in the source and are kept apart here. Bridge positions count the residues as written; N and C are the ends. Square brackets hold non-standard residues; d marks the D form. Peptide text beside a SMILES is read from it. Nle = CCCC[C@H](N)C(=O)O

The AUC(0-inf) is total exposure, with the tail of the curve extrapolated. Low values mean low exposure, high ones high exposure. In general, Cmax refers to the peak of the concentration-time curve. What is called half-life is the time needed for the level to fall by half in the phase considered.

The test system of series [1] is Human peripheral blood mononuclear cells (PBMCs). The experiment in a line: IL-2 release from anti-CD3 stimulated human PBMCs (Example 4a). The note with it: for IC50: geometric mean, at least 4 replicates, read-out: anti-CD3 PBMC/IL-2 IC50. The series is classed as cell-based. As to the method: Human peripheral blood mononuclear cells (PBMCs) were used to assess the effects of Kv1.3 blockers on T-cell activation as determined by IL-2 (cytokine) release after stimulation with anti-CD3.
Human PBMCs were obtained from Precision for Medicine (Frederick, Md.). Cells from 5 donors were used. Plate-bound anti-CD3 was used to stimulate bulk T cells in the PBMC preparations. Briefly, 96-well plates were coated with anti-CD3 antibody for 2 hrs at 37° C., using 50 μL of a 0.5 μg/mL anti-CD3 solution diluted in 1×PBS. Thereafter the plates were washed twice.
Finally, 1×10^5 PBMCs were added to each well in a volume of 100 μL, giving a final volume of 200 μL per well. The plates were incubated for 20-24 hours in a 37° C./5% CO2 incubator. After centrifugation of the plates, 25 μl supernatant was transferred to IL-2 detection plates (MSD Human IL-2 Tissue Culture Kit, cat #K151AHB-2) and IL-2 was measures as described by the manufacturer (Meso Scale Discovery, Rockville, Md., USA).
Results are shown in Table 4a as geometric mean of IC50 values obtained from anti-CD3 stimulated human PBMC assays. All values derive from at least 4 replicates.

The target in another series is T1, Kv1.1 (Homo sapiens, UniProt Q09470).
T1 construct: expressed in transfected cells; host or cells: Chinese Hamster Ovary (CHO)
T1 sequence (Q09470 whole entry): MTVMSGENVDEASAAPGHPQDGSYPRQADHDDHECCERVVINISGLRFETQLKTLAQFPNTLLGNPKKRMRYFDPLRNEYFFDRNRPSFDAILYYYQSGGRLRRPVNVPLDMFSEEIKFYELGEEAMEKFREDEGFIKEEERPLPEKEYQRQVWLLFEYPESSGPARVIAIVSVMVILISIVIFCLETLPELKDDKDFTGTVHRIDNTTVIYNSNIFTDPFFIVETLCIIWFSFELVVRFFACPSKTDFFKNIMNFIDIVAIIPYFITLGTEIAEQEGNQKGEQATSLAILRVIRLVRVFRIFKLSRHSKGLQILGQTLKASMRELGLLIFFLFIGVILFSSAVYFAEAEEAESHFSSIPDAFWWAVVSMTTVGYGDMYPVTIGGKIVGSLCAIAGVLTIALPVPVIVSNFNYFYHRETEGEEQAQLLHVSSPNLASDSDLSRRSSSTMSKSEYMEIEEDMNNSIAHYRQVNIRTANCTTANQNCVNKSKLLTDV
The experiment in a line: cell-based. The note with it: for IC50: CHO cells, whole-cell patch clamp, read-out: Potency IC50 (nM) Kv1.1; for Selectivity Kv1.1/Kv1.3: ratio IC50[Kv1.1]/IC50[Kv1.3]. A general note: Patch clamp records ionic current or voltage across a cell membrane.

A further series deals with T2, Kv1.6 (Homo sapiens, UniProt P17658).
T2 construct: expressed in transfected cells; host or cells: Chinese Hamster Ovary (CHO)
T2 sequence (P17658 whole entry): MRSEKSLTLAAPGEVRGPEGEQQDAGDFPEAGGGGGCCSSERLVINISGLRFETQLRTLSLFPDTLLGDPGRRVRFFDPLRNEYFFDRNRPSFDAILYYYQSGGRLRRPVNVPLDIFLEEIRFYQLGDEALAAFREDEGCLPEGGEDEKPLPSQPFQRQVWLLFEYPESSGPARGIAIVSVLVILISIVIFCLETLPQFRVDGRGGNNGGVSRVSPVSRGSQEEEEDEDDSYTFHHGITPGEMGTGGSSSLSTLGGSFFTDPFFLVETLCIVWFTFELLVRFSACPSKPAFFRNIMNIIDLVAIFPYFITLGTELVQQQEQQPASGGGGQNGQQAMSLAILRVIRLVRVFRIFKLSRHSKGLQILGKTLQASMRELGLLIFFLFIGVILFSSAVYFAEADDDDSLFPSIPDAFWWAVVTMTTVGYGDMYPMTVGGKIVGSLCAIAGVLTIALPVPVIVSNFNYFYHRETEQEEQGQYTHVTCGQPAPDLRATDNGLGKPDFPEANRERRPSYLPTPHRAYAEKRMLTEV
Kind of series: cell-based. The following applies: for IC50: CHO cells, whole-cell patch clamp, read-out: Potency IC50 (nM) Kv1.6.

The target in the next series is T3, Kv1.3 (Homo sapiens, UniProt P22001).
T3 construct: expressed in transfected cells; host or cells: Chinese Hamster Ovary (CHO)
T3 sequence (P22001 whole entry): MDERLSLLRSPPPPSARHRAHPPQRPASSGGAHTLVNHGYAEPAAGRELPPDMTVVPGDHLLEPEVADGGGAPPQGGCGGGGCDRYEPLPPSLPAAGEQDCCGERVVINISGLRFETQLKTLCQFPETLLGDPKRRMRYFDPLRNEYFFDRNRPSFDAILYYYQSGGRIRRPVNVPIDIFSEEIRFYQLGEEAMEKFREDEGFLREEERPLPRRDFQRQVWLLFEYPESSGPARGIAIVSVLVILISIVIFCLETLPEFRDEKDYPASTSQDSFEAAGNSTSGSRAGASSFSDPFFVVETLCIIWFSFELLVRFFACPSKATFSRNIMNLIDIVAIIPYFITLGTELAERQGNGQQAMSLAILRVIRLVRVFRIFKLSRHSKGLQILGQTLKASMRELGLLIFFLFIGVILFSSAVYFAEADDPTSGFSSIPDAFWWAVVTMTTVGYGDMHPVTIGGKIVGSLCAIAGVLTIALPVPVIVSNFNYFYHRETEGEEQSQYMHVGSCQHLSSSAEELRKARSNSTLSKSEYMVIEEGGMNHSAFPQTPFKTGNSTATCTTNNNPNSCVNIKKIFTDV
Kind of series: cell-based. The following applies: CHO cells, whole-cell patch clamp; read-out: Potency IC50 (nM) Kv1.3.

For series [2], the target named is T4, human Kv1.3 voltage-gated K+ channel (Homo sapiens, UniProt P22001).
T4 construct: host or cells: CHO-DUKX
T4 sequence (P22001 whole entry): as above
The experiment in a line: cell-based. The following applies: inhibition of thallium flux, CHO-DUKX cells with human Kv1.3; read-out: IC50.

For another series, the target named is T5, Kv1.2 (Homo sapiens, UniProt P16389).
T5 construct: expressed in transfected cells; host or cells: Chinese Hamster Ovary (CHO)
T5 sequence (P16389 whole entry): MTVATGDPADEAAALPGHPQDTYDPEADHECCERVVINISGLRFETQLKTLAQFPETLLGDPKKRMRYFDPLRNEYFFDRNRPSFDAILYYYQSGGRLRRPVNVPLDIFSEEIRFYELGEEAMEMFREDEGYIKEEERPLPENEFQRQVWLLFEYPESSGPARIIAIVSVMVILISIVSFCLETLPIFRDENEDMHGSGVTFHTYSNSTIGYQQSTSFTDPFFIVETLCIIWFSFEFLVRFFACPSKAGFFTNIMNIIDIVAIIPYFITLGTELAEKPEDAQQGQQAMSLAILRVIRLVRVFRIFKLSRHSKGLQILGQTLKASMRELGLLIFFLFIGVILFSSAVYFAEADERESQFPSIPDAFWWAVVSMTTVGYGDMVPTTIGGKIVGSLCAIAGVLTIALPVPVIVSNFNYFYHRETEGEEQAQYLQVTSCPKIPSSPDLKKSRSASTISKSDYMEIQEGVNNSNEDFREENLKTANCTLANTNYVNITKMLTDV
The experiment in a line: cell-based. The note with it: CHO cells, whole-cell patch clamp; read-out: Potency IC50 (nM) Kv1.2.

A further series deals with Rat whole blood (Rattus norvegicus, UniProt P15384).
Sequence of Rat whole blood (P15384 whole entry): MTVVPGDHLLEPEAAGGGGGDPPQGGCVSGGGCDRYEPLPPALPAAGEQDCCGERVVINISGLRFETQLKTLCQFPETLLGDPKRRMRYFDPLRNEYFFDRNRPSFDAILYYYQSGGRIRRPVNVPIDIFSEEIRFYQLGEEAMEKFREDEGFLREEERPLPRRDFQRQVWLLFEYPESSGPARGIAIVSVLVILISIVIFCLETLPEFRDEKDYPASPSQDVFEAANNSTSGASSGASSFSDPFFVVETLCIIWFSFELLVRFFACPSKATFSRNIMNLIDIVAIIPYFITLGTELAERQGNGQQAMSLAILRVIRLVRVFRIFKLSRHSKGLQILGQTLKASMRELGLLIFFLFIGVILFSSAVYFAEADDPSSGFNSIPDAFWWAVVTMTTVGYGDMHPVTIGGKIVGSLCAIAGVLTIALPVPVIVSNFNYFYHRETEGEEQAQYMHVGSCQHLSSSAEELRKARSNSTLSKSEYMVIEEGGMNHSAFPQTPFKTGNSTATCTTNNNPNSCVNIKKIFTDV
A short description of the next series: in vivo. The note with it: male, rat, sc, 70 nmol/kg.
Series [3] has as its system delayed-type hypersensitivity (DTH) ear swelling response. The series is classed as in vivo, rat. The following applies: Kv1.3 blocker 100 nmol/kg SC 24 hrs prior to KLH challenge, CsA 10 mg/kg per os.

Consider `CC[C@H](C)[C@H](N)C(=O)N[C@@H](CC(N)=O)C(=O)N[C@H](C(=O)N[C@@H](CCCCN)C(=O)N[C@H]1CSSC[C@@H]2NC(=O)[C@H](CCCCN)NC(=O)CNC(=O)[C@H](Cc3ccccc3)NC(=O)[C@H](CCCNC(=N)N)NC(=O)[C@H](CCSC)NC(=O)CNC(=O)[C@H](C)NC(=O)[C@H](CC(=O)O)NC(=O)[C@H](CCCCN)NC(=O)[C@@H]3CSSC[C@@H](C(=O)N[C@@H](Cc4ccc(O)cc4)C(=O)N[C@@H](CO)C(=O)O)NC(=O)[C@H](CCCNC(=N)N)NC(=O)[C@H](CSSC[C@H](NC(=O)[C@H](CCC(N)=O)NC(=O)[C@H](CCC(N)=O)NC(=O)[C@@H]4CCCN4C(=O)[C@H](CC(C)C)NC(=O)[C@H](CO)NC1=O)C(=O)N[C@@H]([C@@H](C)CC)C(=O)N[C@@H](CCCCN)C(=O)N1CCC[C@H]1C(=O)N3)NC(=O)[C@H](CCCCN)NC(=O)[C@H](CCCCN)NC(=O)[C@H](CC(N)=O)NC(=O)[C@H](CCSC)NC2=O)C(C)C` [Moka1, reference compound], for which the “IC50 of Moka1 relative to IC50 of test compounds and ShK186 (IL-2 secretion)” value in series [1] (test compound IC50 lower than that of Moka1) is listed as 10-100 fold.
`CC[C@H](C)[C@@H]1NC(=O)[C@H](C)NC(=O)[C@H](CC(=O)O)NC(=O)[C@H](CC(C)C)NC(=O)[C@@H]2CSSC[C@@H](C(=O)N[C@@H](Cc3ccc(O)cc3)C(=O)N3CCC[C@H]3C(=O)N[C@@H](CCCNC(=N)N)C(N)=O)NC(=O)[C@H](CCCCN)NC(=O)[C@@H]3CSSC[C@H](NC(=O)[C@H](CCC(=O)O)NC(=O)[C@H](C(C)C)NC(=O)[C@H](CO)NC(=O)[C@H](C)NC(=O)[C@H](CO)NC(=O)[C@@H](NC(=O)[C@H](CCCNC(=N)N)NC(=O)[C@H](CCSC)NC(=O)[C@H](CC(=O)O)NC(=O)[C@H](CCSC)NC(=O)[C@@H](N)CC(N)=O)CSSC[C@H](NC(=O)[C@H](CCCCN)NC(=O)CNC(=O)[C@H](Cc4ccccc4)NC(=O)[C@H]([C@@H](C)CC)NC(=O)[C@H](CO)NC(=O)CNC1=O)C(=O)N[C@@H](CCSC)C(=O)N[C@@H](CC(N)=O)C(=O)N[C@@H](CCCCN)C(=O)N[C@@H](CCCCN)C(=O)N3)C(=O)N[C@@H](CCCCN)C(=O)N[C@@H](CCC(N)=O)C(=O)N[C@@H](CCCCN)C(=O)N2` [Compound 20] (H-NMDMRCSASVECKQKCLDAIGSIFGKCMNKKCKCYPR-NH2; disulfide 6-27, 12-32, 16-34): the IC50 at Kv1.1 is over 3000 nM; on Kv1.6, 2530 nM; at Kv1.3, 0.21 nM; in series [2], 0.13 nM; at Kv1.2 it was 99 nM; in series [1] it was 0.1 nM. The “Selectivity Kv1.1/Kv1.3” value on Kv1.1 was over 14300.
As for `CC[C@H](C)[C@@H]1NC(=O)[C@H](C)NC(=O)[C@H](CCCCN)NC(=O)[C@H](CC(C)C)NC(=O)[C@@H]2CSSC[C@@H](C(=O)N[C@@H](Cc3ccc(O)cc3)C(=O)N3CCC[C@H]3C(=O)N[C@@H](CCCNC(=N)N)C(N)=O)NC(=O)[C@H](CCCCN)NC(=O)[C@@H]3CSSC[C@H](NC(=O)[C@H](CCC(=O)O)NC(=O)[C@H](C(C)C)NC(=O)[C@H](CO)NC(=O)[C@H](C)NC(=O)[C@H](CO)NC(=O)[C@@H](NC(=O)[C@H](CCCNC(=N)N)NC(=O)[C@H](CCSC)NC(=O)[C@H](CC(=O)O)NC(=O)[C@H](CCSC)NC(=O)[C@@H](N)CC(N)=O)CSSC[C@H](NC(=O)[C@H](CCCCN)NC(=O)CNC(=O)[C@H](Cc4ccccc4)NC(=O)[C@H](CCCNC(=N)N)NC(=O)[C@H](CO)NC(=O)CNC1=O)C(=O)N[C@@H](CCSC)C(=O)N[C@@H](CC(N)=O)C(=O)N[C@@H](CCCCN)C(=O)N[C@@H](CCCCN)C(=O)N3)C(=O)N[C@@H](CCCCN)C(=O)N[C@@H](CCC(N)=O)C(=O)N[C@@H](CCCCN)C(=O)N2` [Compound 35] (H-NMDMRCSASVECKQKCLKAIGSRFGKCMNKKCKCYPR-NH2; disulfide 6-27, 12-32, 16-34), the IC50 on Kv1.1 was over 3000 nM; at Kv1.6, 192 nM; on Kv1.3, 0.2 nM; in [2], 0.077 nM; at Kv1.2, 18 nM; in series [1], 0.1 nM. Moreover, the “Selectivity Kv1.1/Kv1.3” value at Kv1.1 was over 15000.
With `CCCC[C@@H]1NC(=O)[C@@H]2CSSC[C@H](NC(=O)[C@H](CCCNC(=N)N)NC(=O)[C@H](CCSC)NC(=O)[C@H](CC(=O)O)NC(=O)[C@H](CCSC)NC(=O)[C@@H](N)CC(N)=O)C(=O)N[C@@H](CO)C(=O)N[C@@H](C)C(=O)N[C@@H](CO)C(=O)N[C@@H](C(C)C)C(=O)N[C@@H](CCC(=O)O)C(=O)N[C@H]3CSSC[C@H](NC(=O)[C@H](CCCCN)NC(=O)[C@H](CCCCN)NC(=O)[C@H](CC(N)=O)NC1=O)C(=O)N[C@@H](CCCCN)C(=O)N[C@H](C(=O)N[C@@H](Cc1ccc(O)cc1)C(=O)N1CCC[C@H]1C(=O)N[C@@H](CCCNC(=N)N)C(N)=O)CSSC[C@H](NC(=O)[C@H](CCCCN)NC(=O)[C@H](CCC(N)=O)NC(=O)[C@H](CCCCN)NC3=O)C(=O)N[C@@H](CC(C)C)C(=O)N[C@@H](CCCCN)C(=O)N[C@@H](C)C(=O)N[C@@H]([C@@H](C)CC)C(=O)NCC(=O)N[C@@H](CO)C(=O)N[C@@H]([C@@H](C)CC)C(=O)N[C@@H](Cc1ccccc1)C(=O)NCC(=O)N[C@@H](CCCCN)C(=O)N2` [Compound 16] (H-NMDMRCSASVECKQKCLKAIGSIFGKC[Nle]NKKCKCYPR-NH2; disulfide 6-27, 12-32, 16-34), the IC50 at Kv1.1 was over 3000 nM; at Kv1.6, 2460 nM; at Kv1.3 it was 0.24 nM; in series [2], 0.14 nM; at Kv1.2, 133 nM; in series [1], 0.05 nM. Also, at Kv1.1, the “Selectivity Kv1.1/Kv1.3” value was over 12600.
Consider `CCCC[C@H](NC(=O)[C@@H]1CCCN1)C(=O)N[C@@H](CCC(=O)O)C(=O)N[C@@H](CCCC)C(=O)N[C@@H](CCCNC(=N)N)C(=O)N[C@H]1CSSC[C@@H]2NC(=O)[C@H](CCCCN)NC(=O)CNC(=O)[C@H](Cc3ccccc3)NC(=O)[C@H]([C@@H](C)CC)NC(=O)[C@H](CO)NC(=O)CNC(=O)[C@H]([C@@H](C)CC)NC(=O)[C@H](C)NC(=O)[C@H](C)NC(=O)[C@H](CC(C)C)NC(=O)[C@@H]3CSSC[C@@H](C(=O)N[C@@H](Cc4ccc(O)cc4)C(=O)N4CCC[C@H]4C(=O)N[C@@H](CCCNC(=N)N)C(=O)O)NC(=O)[C@H](CCCCN)NC(=O)[C@H](CSSC[C@H](NC(=O)[C@H](CCC(=O)O)NC(=O)[C@H](C(C)C)NC(=O)[C@H](CO)NC(=O)[C@H](C)NC(=O)[C@H](CO)NC1=O)C(=O)N[C@@H](CCCCN)C(=O)N[C@@H](CCC(N)=O)C(=O)N[C@@H](CCCCN)C(=O)N3)NC(=O)[C@H](CCCCN)NC(=O)[C@H](CCCCN)NC(=O)[C@H](CC(N)=O)NC(=O)[C@H](CCCC)NC2=O` [Compound 97] (H-P[Nle]E[Nle]RCSASVECKQKCLAAIGSIFGKC[Nle]NKKCKCYPR-OH; disulfide 6-27, 12-32, 16-34), for which the IC50 on Kv1.1 was over 3000 nM; on Rat whole blood, at most 1 nM; at Kv1.6, over 3000 nM; on Kv1.3 it was 0.33 nM; in series [2] it was 0.15 nM; at Kv1.2 it was 1120 nM. The “Selectivity Kv1.1/Kv1.3” value on Kv1.1 is listed as over 9100. The AUC(0-inf) in the series “in vivo” was determined as 0.112 µM·h. The compound further showed a Cmax in “in vivo” of 52.6 nM. Moreover, the half-life in “in vivo” was 1.04 h. Also, the “Selectivity Kv1.6/Kv1.3” value on Kv1.6 (ratio IC50[Kv1.6]/IC50[Kv1.3]) is over 9100. Moreover, the “% inhibition of ear thickness (AUC of Δ ear thickness 0-48 hours)” value in [3] (Exp #6) was 42.5%; in series [3] (Exp #8) it was 37.7%.
